A short description of data set [1]: log P (octanol-water fractionation coefficient). Particulars: for logP: octanol/water.
The nature of data set [2]: Composition identification of the solvent after 30 times of washing with solvent reuse. The data set is classed as physicochemical. Particulars: for Content in solvent collected in the solvent storage tank after final washing: initial 96.0 wt %. As for the experimental part:
The washing machines according to Examples and Comparative Examples according to the present disclosure were prepared, and washing was performed under the same conditions. The same type of fibers was put into each washing machine, and a composition including a compound according to the Chemical Formula 1 (wherein R1 and R2 are alkyl having 1 carbon atom, and R3 is hydrogen) was used as a laundry solvent.
At the first washing, the solvent was supplied, the washing was performed for 15 minutes, the solvent was collected while undergoing a drying process, another fiber was put into the washing machine, and the collected solvent was re-supplied for washing. 30 times of washing in total were performed in the same way, without replacement of the solvent storage tank or cartridge during the washing process.

`Cc1cc(O)c(C)c(O)c1C(=O)O` [2,4-Dihydroxy-3,6-dimethylbenzoic acid] returned a log partition coefficient (logP) in data set [1] of 2.19. In data set [1], `CCCCOCCOCCO` [2-(2-butoxyethoxy)ethanol] returned a logP of 0.65. Compound `Cc1nc(N(C)C)nc(O)c1C` [2-(dimethylamino)-5,6-dimethylpyrimidin-4-ol] gave a logP in data set [1] of 1.63. In turn, `CCOC(=O)c1ccccc1C(=O)O` [2-(ethoxycarbonyl)benzoic acid] yielded a logP in data set [1] of 1.8. The compound `CCCCCCC(C=O)=Cc1ccccc1` [Alpha-hexyl cinnamaldehyde, reference compound] came in with a logP in data set [1] of 4.68.

As to `CC1(C)OCC(CO)O1` (stereo not drawn) [Chemical Formula 1, solketal], in data set [2] (30 washings, conventional washing machine (Comparative Example 2-1)), the “Amount decomposed into acetone and glycerol” value is reported as “approximately 30 wt %”. Besides, the “Content in solvent collected in the solvent storage tank after final washing” value in data set [2] (30 washings, washing machine of Comparative Example 2-1 (conventional)) is on record as 69.0 wt %; in data set [2] (30 washings, washing machine of Example 2-1) it was 91.4 wt %; in data set [2] (30 washings, washing machine of Example 2-2), 92.7 wt %; in data set [2] (30 washings, washing machine of Example 2-3), 94.1 wt %; in data set [2] (30 washings, washing machine of Example 2-4), 94.9 wt %; in data set [2] (30 washings, washing machine of Example 2-5) it was 95.5 wt %. The Amount decomposed result in data set [2] (after 30 times of washing, washing machine according to an example embodiment) is recorded as “less than 10 wt %”. The “Log P” value in data set [1] (octanol-water) is recorded as “approximately 1.07”. With `OCCO` [Ethylene glycol, reference compound], in data set [1], the logP is -1.93. The same measure, in the same setting: with `CC(C)=CCC/C(C)=C/CO` [Geraniol] the figure was 3.47. Same read-out and setting: with `Oc1cccc(O)c1` [Resorcinol] the figure was 1.13; with `COc1cc(C=O)ccc1O` [Vanillin], 0.71.

The values above are taken from patent publication US20230242843A1, “GREEN SOLVENT, LAUNDRY COMPOSITION COMPRISING SAME, AND WASHING MACHINE” (LG HOUSEHOLD & HEALTH CARE LTD., priority 2020, published 2023).
